In paper PMC7011920, “Synthesis and biological evaluation of stilbene derivatives coupled to NO donors as potential antidiabetic agents” (Journal of Enzyme Inhibition and Medicinal Chemistry, 2018):

Experiments:
aldose reductase (ALR2) = molecular target: T1, aldose reductase (ALR2) (Mus musculus, UniProt P45376); experiment: In vitro ALR2 inhibitory activity (crude enzyme, NADPH decrease at 340 nm); format: biochemical, mice; details: read-out: IC50 value, ALR2 inhibitory activity
T1 construct: After homogenisation and centrifugation, the crude ALR2 from mice was obtained; from tissue
Protocol: The enzyme aldose reductase (ALR2) is a member of the aldo–keto reductase superfamily. The development and progression of chronic diabetic complications are confirmed to be quite related to the activation and/or over expression of ALR2[25]. Therefore, ALR2 inhibitors may play a critical role in preventing or treating these complications.
After homogenisation and centrifugation, the crude ALR2 from mice was obtained. The inhibitory activity of the compounds on ALR2 was carried out using crude enzyme and different concentrations of the compounds (1–1000 µg/ml) in 200 mM PBS (pH 6.2) containing 0.10 mM NADPH. The reaction was initiated by addition of glyceraldehyde and the decrease in the optical density of NADPH at 340 nm was recorded for 3 min. All experiments were run in triplicate. IC50 of the compounds was calculated. The flavonoid quercetin was used as a reference in the ALR2 assay.

[1] = Oral toxicity to mice (Lorke's method); details: both sexes, mouse, in vivo, Kunming mice, 14 days observation
Protocol: With reference to Lorke’s method, Kunming mice were used as targets to estimate oral toxicity of each compound to mice. We select compounds 3c, 3e, and 7c at concentrations of 10, 100, and 1000 mg/kg to test their oral toxicity in the first phase, and 1600, 2900, and 5000 mg/kg at the second phase. […] No death and no appetite-suppressant effect were detected in the tested mice in 14 days. […].
Experiments were performed on Kunming mice (male and female half, body weight range, 25–30 g). Mice were housed in a climate and light controlled room with a 12 h light/dark cycle. Twelve hours before experiments, food was withheld, but animals had free access to drinking water. The compounds were suspended in vehicle (Tween-80, 0.2% in saline). The concentrations were adjusted to orally administrate 0.2 ml/10 g of bw (body weight). Mice were treated in two phases. In the first, intragastric doses of 10, 100 and 1000 mg/kg of bw of compounds were administered. On the second, the doses were adjusted to 1600, 2900 and 5000 mg/kg of bw of compounds. In both phases, mice were observed daily in a period of 14 days for mortality, toxic effects and/or changes in behavioural pattern. At the end of the experiments, the mice were sacrificed in a CO2 chamber.

In the case of COc1cc(/C=C/c2ccc(OCCCCCCO[N+](=O)[O-])cc2)cc(OC)c1 [3c], the IC50 (aldose reductase (ALR2)) is reported as 299 ± 22.6 µM and the LD50 at 14 days [1] is reported as > 5000 mg/kg.
